Laboratory results: article PMC10074041 (RSC Advances, 2023)
In brackets after ≈: the same amount, converted by molar mass.

Biological target: α-glucosidase
Assay: pNPG hydrolysis, absorbance […] nm
Assay type: biochemical
Details: 1.25 mM pNPG, phosphate pH 6.8, 35 min preincubation at room temperature

CC(=O)NC(CC(=O)O)c1ccccc1O (stereo not shown) [L1, 3-Acetylamino-3(2-hydroxyphenyl) propanoic acid] was tested, and the “IC50 (μg mL^-1) / In vitro α-glucosidase inhibitory activity” value was 40.96 ± 0.96 µg/mL (≈ 183 µM).
